Test results from patent US9980509B2, “Modification of bacterial profile of tobacco” (R.J. REYNOLDS TOBACCO COMPANY, priority 2013, dated 2018).

Legend:
total aerobic bacteria = test: Total bacteria counts (plate count agar) on field-treated tobacco leaf; type: in vivo; conditions: dark-air cured tobacco treated five hours prior to harvest; based on total bacteria counts before and after treatment
Procedure: (§1) Dark-air cured tobacco is treated five hours prior to harvest with one or more of a probiotic bacteria solution, and enzyme solution, and/or a 3% sodium chloride salt solution. The solution is applied using a backpack sprayer. Solutions are based on a 100 gallon solution per acre, using recommended plant spacings and dose per plant is provided below.
(§2) The treated tobacco is harvested and mid-stalk leaf samples are analyzed for total bacteria counts, enteric bacteria counts, and Lactobacillus counts. Ten grams of each treated tobacco sample is placed in Butterfields Phosphate Buffer and diluted 10^−2 to 10^−8 times with water. The treated tobacco sample dilutions are applied to plate count agar (PCA) for total aerobic bacteria counts, to violet red bile agar (VRBA) for gram negative bacteria counts, and to MRS for anaerobic (Lactobacillus) counts. The number of bacterial colonies, as visualized under magnification, are counted to estimate the total number of colony-forming units per gram, CFU/g.

[1] = system: enteric bacteria (gram negative bacteria); test: Enteric bacteria counts (violet red bile agar) on field-treated tobacco leaf; type: in vivo; conditions: dark-air cured tobacco treated five hours prior to harvest; based on total bacteria counts before and after treatment
Procedure: as §1, §2

Lactobacillus = Lactobacillus (anaerobic) counts on MRS from field-treated tobacco leaf; type: in vivo
Procedure: as §1, §2

Dark tobacco plants = conditions: for NNN content relative to the level of quantification: potassium chloride-treated samples 1, 2, 3, 5, and 6; for NNN content relative to the level of quantification / NAT content relative to the level of quantification: all potassium sulfate-treated samples; for NAT content relative to the level of quantification: potassium chloride-treated samples 3, 5, and 6
Procedure: A first, 0.5 acre unplanted plot of soil was treated with a nitrogen-containing fertilizer comprising urea (N—P—K: 46-0-0) at a rate of 150 pounds per acre and a fertilizer incorporating diammonium phosphate and phosphorus (N—P—K: 18-46-0) at a rate of 180 pounds per acre by broadcast application. […] All fertilizer applications were incorporated into the soil after application.
A second, 0.5 acre unplanted plot of soil was treated with a nitrogen-containing fertilizer comprising urea (N—P—K: 46-0-0) at a rate of 150 pounds per acre and a fertilizer incorporating diammonium phosphate and phosphorus (N—P—K: 18-46-0) at a rate of 180 pounds per acre by broadcast application. The following day, a potassium chloride fertilizer (N—P—K: 0-0-60) was broadcast applied at 180 pounds per acre. All fertilizer applications were incorporated into the soil after application.
Dark tobacco plants were independently grown and were transplanted as seedlings (approximately 6-10 inches in length) to both plots (with 2450 plants per fertilized plot) four days after application of the potassium sources to the soil. […] The tobacco plants from both plots were harvested about three months after UAN treatment, and the harvested plants were moved to a traditional 1-acre air-curing barn. The plants were cured in the barn for about a month and a half.
After curing the plants, the leaves were removed from the stalks. The fourth leaf from the upper stalk position of six plants from each plot was taken for analysis. Each of these twelve leaves was prepared by removing the mid-rib stem from the leaf lamina.
The lamina was milled and the content of certain components was evaluated by liquid chromatography-mass spectrometry (LCMS). In particular, the leaves were analyzed in triplicate for TSNA content (namely, NNN, NNK, NAT, and NAB content).

Structure (SMILES) | total bacteria reduction after treatment (total aerobic bacteria) [%] | enteric bacteria reduction after treatment [1] [%] | Lactobacillus increase after treatment (Lactobacillus; dark-air cured tobacco treated five hours prior to harvest, based on total bacteria counts before and after treatment) | Lactobacillus bacteria change after treatment (Lactobacillus; treated tobacco material, Example 1) | NAT content compared with potassium sulfate treatment (Dark tobacco plants; all cured leaf samples tested) | NNN content compared with potassium sulfate treatment (Dark tobacco plants; all cured leaf samples tested) | average decrease NAT with respect to the potassium sulfate-treated samples (Dark tobacco plants; cured leaf samples) | average decrease NNN with respect to the potassium sulfate-treated samples (Dark tobacco plants; cured leaf samples) | TSNA levels, particularly NNN and NNK, compared with leaves from potassium sulfate-treated soil (Dark tobacco plants; cured leaves) | NNN content relative to the level of quantification (Dark tobacco plants) | NAT content relative to the level of quantification (Dark tobacco plants)
[Cl-].[Na+] [3% NaCl solution, sodium chloride] | 94 | 76 | greater than 400% | significant increase | – | – | – | – | – | – | –
[Cl-].[K+] [Potassium Chloride, potassium chloride] | – | – | – | – | significant decreases | significant decreases | about 77% | about 69% | significantly lower | below the level of quantification | below the level of quantification
O=S(=O)([O-])[O-].[K+].[K+] [Potassium Sulfate, potassium sulfate, reference compound] | – | – | – | – | – | – | – | – | – | well above such levels | well above such levels
